Test results as given in US20120172392A1, “AMINE-BASED AND AMIDE-BASED INHIBITORS OF SEMICARBAZIDE-SENSITIVE AMINE OXIDASE (SSAO) ENZYME ACTIVITY AND VAP-1 MEDIATED ADHESION USEFUL FOR TREATMENT OF DISEASES” (priority 2004, published 2012).
Structures can show the parent of a compound that is named as a salt.

Assays:
Sprague Dawley rats = assay: Carrageenan-induced rat paw edema; type: in vivo; details: 30 mg/kg p.o. one hour before carrageenan; 1-6 h
Protocol: Female Sprague Dawley rats were used and compounds of the invention were injected i.p. or dosed orally prior to carrageenan exposure. An equal volume of vehicle (PBS) was administered to the control group. Edema in the paws was induced as previously described by injecting 50 μl of a 0.5% solution of carrageenan (Type TV Lambda, Sigma) in saline with a 27-G needle s.c. in the right foot pat. (See Whiteley P. E. and Dalrymple S. A. (1998), Models of inflammation: carrageenan-induced paw edema in the rat, in Current Protocols in Pharmacology. Enna Si, Williams M, Ferkany J W, Kenaki T, Porsolt R E and Sullivan J P, eds., pp 5.4.1-5.4.3, John Wiley & Sons, New York) The size of the tested foot of each animal was measured volumetrically, before induction of edema, and at 1, 2, 3, 4, and 6 hours after carrageenan induction, to screen for compounds which inhibit the development of edema as compared to control animals.
The results of an experiment where three compounds of Example 21, Table I (LJP 1379, LJP 1383, LJP 1406) were used are shown in FIG. 2A, FIG. 2B, and FIG. 2C. […] Paw volumes were recorded at the indicated times and expressed as percent of the volume before injection (100%). […] Paw volumes were recorded at the indicated times and expressed as percent of the volume before injection (100%). […]

SSAO = target: T1, SSAO (Rattus norvegicus, UniProt O08590); assay: In vitro inhibition of SSAO activity, radiolabeled benzylamine procedure (rat lung homogenate); type: biochemical
T1 construct: SSAO activity in 100 ul of lung homogenate was determined radiochemically; from tissue; host or cells: rat lung homogenate (1000 g supernatant)
T1 sequence (O08590 1-763): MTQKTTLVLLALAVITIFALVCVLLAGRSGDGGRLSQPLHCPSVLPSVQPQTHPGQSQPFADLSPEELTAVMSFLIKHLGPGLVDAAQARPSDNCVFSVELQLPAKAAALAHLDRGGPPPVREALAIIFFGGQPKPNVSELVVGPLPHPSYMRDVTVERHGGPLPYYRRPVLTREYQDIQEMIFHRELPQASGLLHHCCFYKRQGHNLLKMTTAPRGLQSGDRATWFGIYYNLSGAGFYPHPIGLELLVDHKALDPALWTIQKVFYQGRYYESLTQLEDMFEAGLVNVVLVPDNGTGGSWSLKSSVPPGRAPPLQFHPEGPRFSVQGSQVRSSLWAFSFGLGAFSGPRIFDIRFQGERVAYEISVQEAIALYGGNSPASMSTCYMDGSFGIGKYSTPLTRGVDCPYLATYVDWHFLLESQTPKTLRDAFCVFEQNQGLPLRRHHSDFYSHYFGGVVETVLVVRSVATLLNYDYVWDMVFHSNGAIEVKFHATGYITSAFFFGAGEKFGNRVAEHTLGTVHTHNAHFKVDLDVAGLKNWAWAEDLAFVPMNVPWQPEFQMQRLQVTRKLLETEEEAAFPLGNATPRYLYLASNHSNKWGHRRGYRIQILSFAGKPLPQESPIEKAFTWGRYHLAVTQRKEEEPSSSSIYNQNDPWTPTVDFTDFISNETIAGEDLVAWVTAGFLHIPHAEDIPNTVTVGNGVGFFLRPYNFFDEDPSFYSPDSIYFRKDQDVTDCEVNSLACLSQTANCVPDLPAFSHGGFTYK

## NCC(=O)NCc1cc(F)cc(C(F)(F)F)c1 [LJP 1383, 2-amino-N-(3-fluoro-5-trifluoromethylbenzyl)acetamide trifluoroacetate]
Sprague Dawley rats
  paw swelling (paw volume): significantly reduced the paw swelling at all time points tested
SSAO
  reversibility of inhibition of SSAO enzyme activity: irreversible
